Target: T1, human FAAH (Homo sapiens, UniProt O00519)
T1 construct: expressed in transfected cells; host or cells: H4 cells stably transfected with human FAAH (Geneticin selection); crude membrane homogenates
T1 sequence (O00519 1-579): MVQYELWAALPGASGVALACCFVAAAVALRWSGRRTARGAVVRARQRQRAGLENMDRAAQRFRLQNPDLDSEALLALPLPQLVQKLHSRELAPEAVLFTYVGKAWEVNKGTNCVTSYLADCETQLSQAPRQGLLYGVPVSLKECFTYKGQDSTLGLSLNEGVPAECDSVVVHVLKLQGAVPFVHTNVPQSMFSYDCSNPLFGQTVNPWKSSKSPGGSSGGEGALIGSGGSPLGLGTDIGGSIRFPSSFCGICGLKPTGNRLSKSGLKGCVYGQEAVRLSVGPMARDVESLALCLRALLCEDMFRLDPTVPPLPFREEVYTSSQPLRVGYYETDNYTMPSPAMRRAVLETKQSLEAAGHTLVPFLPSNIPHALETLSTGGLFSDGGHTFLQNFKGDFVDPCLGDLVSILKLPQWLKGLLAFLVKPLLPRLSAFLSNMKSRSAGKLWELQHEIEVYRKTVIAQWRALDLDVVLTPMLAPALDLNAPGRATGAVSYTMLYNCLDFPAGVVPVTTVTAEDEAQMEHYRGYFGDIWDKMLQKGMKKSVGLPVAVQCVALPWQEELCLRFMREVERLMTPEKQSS
Test: Determination of FAAH activity (membrane homogenates of H4-FAAH cells, [3H]-anandamide hydrolysis)
Assay type: biochemical
Conditions: transfected human FAAH, H4-FAAH cell membranes, 10 μM anandamide, room temperature, one hour
Method: Homogenates of crude membranes were prepared from H4 cells that express transfected human FAAH (H4-FAAH cells). Briefly, cells were grown in DMEM supplemented with 10% FBS and Geneticin at a final concentration of 500 μg/ml (Gibco BRL, Rockville, Md.). Confluent cultures of H4-FAAH cells were rinsed twice with phosphate-buffered saline [138 mM NaCl, 4.1 mM KCl, 5.1 mM Na2PO4, 1.5 mM KH2PO4 (pH 7.5), 37° C.] and incubated for 5-10 min. at 4° C. in lysis buffer [1 mM sodium bicarbonate]. Cells were transferred from plates to polypropylene tubes (16×100 mm), homogenized and centrifuged at 32,000×g for 30 min. Pellets were resuspended by homogenization in lysis buffer and centrifuged at 32,000×g for 30 min. Pellets were resuspended in lysis buffer (15-20 μg protein/ml) then stored at −80° C. until needed. On the day of an experiment, membranes were diluted to 2.67 μg protein/ml in 125 mM Tris-Cl, pH 9.0
Activity of FAAH was measured using a modification of the method described by Omeir et al., 1995 (Life Sci 56:1999, 1995). Membrane homogenates (240 ng protein) were incubated at room temperature for one hour with 1.67 nM anandamide [ethanolamine 1-^3H] (American Radiolabeled Chemical Inc., St Louis, Mo.) and 10 μM anandamide (Sigma/RBI, St. Louis, Mo.) in the absence and presence of inhibitors. The reaction was stopped by the addition of 1 volume of a solution of methanol and dichloroethane (1:1). The mixture was shaken and then centrifuged at 1000×g for 15 min. to separate the aqueous and organic phases. An aliquot of the aqueous phase, containing [^3H]-ethanolamine was withdrawn and counted by scintillation spectroscopy. Data were expressed as the percentage of [^3H]-ethanolamine formed versus vehicle, after subtraction of the background radioactivity determined in the presence of 10 μM arachidonyl trifluoromethyl ketone (ATFMK), an inhibitor of FAAH. IC50 values were determined using a four-parameter logistic equation for dose-response curves.

| SMILES | IC50 |
| --- | --- |
| CCOC(=O)NCCCCCn1c(C)nc(-c2ccccc2)c1-c1ccccc1 [Example 30, [5-(2-Methyl-4,5-diphenyl-imidazol-1-yl)-pentyl]-carbamic acid ethyl ester] | 100 to 1000 nM |
| Cc1nc(-c2ccccc2)c(-c2ccccc2)n1CCOc1ccc(NC(=O)Oc2ccc(F)cc2)cc1 [Example 62, {4-[2-(2-Methyl-4,5-diphenyl-imidazol-1-yl)-ethoxy]-phenyl}-carbamic acid 4-fluoro-phenyl ester] | 1000 to 10000 nM |
| Cc1nc(-c2ccccc2)c(-c2ccccc2)n1CCCCCNC(=O)Oc1ccc(C#N)cc1 [Example 38, [5-(2-Methyl-4,5-diphenyl-imidazol-1-yl)-pentyl]-carbamic acid 4-cyano-phenyl ester] | 10 to 100 nM |
| COc1cccc(OC)c1OC(=O)NCCCCCCCn1c(C)nc(-c2ccccc2)c1-c1ccccc1 [Example 28, [7-(2-Methyl-4,5-diphenyl-imidazol-1-yl)-heptyl]-carbamic acid 2,6-dimethoxy-phenyl ester] | 100 to 1000 nM |
| Cc1nc(-c2ccccc2)c(-c2ccccc2)n1CCCCCC(C)NC(=O)Oc1ccccc1F (stereo not drawn) [Example 71, [1-Methyl-6-(2-methyl-4,5-diphenyl-imidazol-1-yl)-hexyl]-carbamic acid 2-fluoro-phenyl ester] | < 10 nM |
| CCOC(=O)NCCCCCCn1c(C)nc(-c2ccccc2)c1-c1ccccc1 [Example 45, [6-(2-Methyl-4,5-diphenyl-imidazol-1-yl)-hexyl]-carbamic acid ethyl ester] | 100 to 1000 nM |
| Cc1nc(-c2ccccc2)c(-c2ccccc2)n1CCCOc1ccc(NC(=O)Oc2ccccc2F)cc1 [Example 66, {4-[3-(2-Methyl-4,5-diphenyl-imidazol-1-yl)-propoxy]-phenyl}-carbamic acid 2-fluoro-phenyl ester] | 1000 to 10000 nM |
| Cc1nc(-c2ccccc2)c(-c2ccccc2)n1CCCCCCCNC(=O)Oc1ccccc1F [Example 22, [7-(2-Methyl-4,5-diphenyl-imidazol-1-yl)-heptyl]-carbamic acid 2-fluoro-phenyl ester] | < 10 nM |
| Cc1nc(-c2ccccc2)c(-c2ccccc2)n1CCCCCCNC(=O)OCc1ccccc1 [Example 5, [6-(2-Methyl-4,5-diphenyl-imidazol-1-yl)-hexyl]-carbamic acid benzyl ester] | 1000 to 10000 nM |
| Cc1nc(-c2ccccc2)c(-c2ccccc2)n1CCOc1ccc(NC(=O)Oc2ccc(F)c(F)c2)cc1 [Example 52, {4-[2-(2-Methyl-4,5-diphenyl-imidazol-1-yl)-ethoxy]-phenyl}-carbamic acid 3,4-difluoro-phenyl ester] | 1000 to 10000 nM |
| Cc1ccccc1OC(=O)NCCCCCCn1c(C)nc(-c2ccccc2)c1-c1ccccc1 [Example 14, [6-(2-Methyl-4,5-diphenyl-imidazol-1-yl)-hexyl]-carbamic acid o-tolyl ester] | < 10 nM |
| CCOC(=O)NCCCCCCCn1c(C)nc(-c2ccccc2)c1-c1ccccc1 [Example 19, [7-(2-Methyl-4,5-diphenyl-imidazol-1-yl)-heptyl]-carbamic acid ethyl ester] | 10 to 100 nM |
| CCOC(=O)Nc1ccc(OCCn2c(C)nc(-c3ccccc3)c2-c2ccccc2)cc1 [Example 70, {4-[2-(2-Methyl-4,5-diphenyl-imidazol-1-yl)-ethoxy]-phenyl}-carbamic acid ethyl ester] | 1000 to 10000 nM |
| Cc1nc(-c2ccc(F)cc2)c(-c2ccc(F)cc2)n1CCCCCCNC(=O)Oc1c(F)cccc1F [Example 44, {6-[4,5-Bis-(4-fluoro-phenyl)-2-methyl-imidazol-1-yl]-hexyl}-carbamic acid 2,6-difluoro-phenyl ester] | 10 to 100 nM |
| CCC(CCCCCn1c(C)nc(-c2ccccc2)c1-c1ccccc1)NC(=O)Oc1ccccc1F (stereo not drawn) [Example 72, [1-Ethyl-6-(2-methyl-4,5-diphenyl-imidazol-1-yl)-hexyl]-carbamic acid 2-fluoro-phenyl ester] | 10 to 100 nM |
| Cc1nc(-c2ccccc2)c(-c2ccccc2)n1CCCCCCNC(=O)Oc1ccc(F)cc1 [Example 10, [6-(2-Methyl-4,5-diphenyl-imidazol-1-yl)-hexyl]-carbamic acid 4-fluoro-phenyl ester] | < 10 nM |
| CCc1nc(-c2ccccc2)c(-c2ccccc2)n1CCCCCCNC(=O)OC(C)(C)C [Example 2, [6-(2-Ethyl-4,5-diphenyl-imidazol-1-yl)-hexyl]-carbamic acid tert-butyl ester] | 1000 to 10000 nM |
| Cc1nc(-c2ccccc2)c(-c2ccccc2)n1CCCCCCNC(=O)O/N=C/c1ccccc1[N+](=O)[O-] [Example 48, 2-Nitrobenzaldehye, O-[6-(2-methyl-4,5-diphenyl-1H-imidazol-1-yl)hexylaminocarbonyl]oxime] | 10 to 100 nM |
| Cc1nc(-c2ccccc2)c(-c2ccccc2)n1CCCCCCNC(=O)O/N=C/c1cccc([N+](=O)[O-])c1 [Example 49, 3-Nitrobenzaldehyde, O-[6-(2-methyl-4,5-diphenyl-1H-imidazol-1-yl)hexylaminocarbonyl]oxime] | 10 to 100 nM |
| Cc1nc(-c2ccccc2)c(-c2ccccc2)n1CCCCCNC(=O)Oc1ccc(F)cc1 [Example 32, [5-(2-Methyl-4,5-diphenyl-imidazol-1-yl)-pentyl]-carbamic acid 4-fluoro-phenyl ester] | 10 to 100 nM |
| Cc1nc(-c2ccccc2)c(-c2ccccc2)n1CCCOc1ccc(NC(=O)Oc2ccccc2)cc1 [Example 63, {4-[3-(2-Methyl-4,5-diphenyl-imidazol1-yl)-propoxy]-phenyl}-carbamic acid phenyl ester] | 1000 to 10000 nM |
| Cc1nc(-c2ccccc2)c(-c2ccccc2)n1CCCCCCNC(=O)O/N=C/c1cccnc1 [Example 51, 3-Pyridinecarboxaldehyde, O-[6-(2-methyl-4,5-diphenyl-1H-imidazol-1-yl)hexylaminocarbonyl]oxime] | 10 to 100 nM |
| Cc1nc(-c2ccccc2)c(-c2ccccc2)n1CCCCCNC(=O)Oc1ccccc1F [Example 34, [5-(2-Methyl-4,5-diphenyl-imidazol-1-yl)-pentyl]-carbamic acid 2-fluoro-phenyl ester] | 10 to 100 nM |
| Cc1nc(-c2ccccc2)c(-c2ccccc2)n1CCCCCCNC(=O)O/N=C/c1ccc(F)cc1 [Example 47, 4-Fluorobenzaldehyde,O-[6-(2-methyl-4,5-diphenyl-1H-imidazol-1-yl)hexylaminocarbonyl]oxime] | 10 to 100 nM |
| Cc1nc(-c2ccccc2)c(-c2ccccc2)n1CCCCCNC(=O)Oc1ccc(F)cc1F [Example 33, [5-(2-Methyl-4,5-diphenyl-imidazol-1-yl)-pentyl]-carbamic acid 2,4-difluoro-phenyl ester] | 10 to 100 nM |
| Cc1nc(-c2ccccc2)c(-c2ccccc2)n1CCOc1ccc(NC(=O)Oc2ccccc2F)cc1 [Example 61, {4-[2-(2-Methyl-4,5-diphenyl-imidazol-1-yl)-ethoxy]-phenyl}-carbamic acid 2-fluoro-phenyl ester] | 1000 to 10000 nM |
| COc1ccccc1OC(=O)NCCCCCCCn1c(C)nc(-c2ccccc2)c1-c1ccccc1 [Example 29, [7-(2-Methyl-4,5-diphenyl-imidazol-1-yl)-heptyl]-carbamic acid 2-methoxy-phenyl ester] | 10 to 100 nM |
| COC(=O)NCCCCCCn1c(C)nc(-c2ccccc2)c1-c1ccccc1 [Example 8, [6-(2-Methyl-4,5-diphenyl-imidazol-1-yl)-hexyl]-carbamic acid methyl ester] | 100 to 1000 nM |
| Cc1nc(-c2ccccc2)c(-c2ccccc2)n1CCCCCCCNC(=O)Oc1ccc(Cl)cc1 [Example 24, [7-(2-Methyl-4,5-diphenyl-imidazol-1-yl)-heptyl]-carbamic acid 4-chloro-phenyl ester] | < 10 nM |
| Cc1ccccc1OC(=O)NCCCCCn1c(C)nc(-c2ccccc2)c1-c1ccccc1 [Example 37, [5-(2-Methyl-4,5-diphenyl-imidazol-1-yl)-pentyl]-carbamic acid o-tolyl ester] | 100 to 1000 nM |

Reference: USRE39634E1, “Bisarylimidazoly fatty acid amide hydrolase inhibitors” (Bristol-Myers Squibb Company, priority 2001, dated 2007)
